# System: SNU-1 cells
# Assay: Staurosporine-induced apoptosis, Annexin V/7AAD flow cytometry
# Format: cell-based, human
# Conditions: staurosporine 1.0 μM
# Experimental: Staurosporine (STS), a kinase inhibitor, was added to the above cells at 1.0 μM to induce apoptosis (FIG. 4b). Apoptosis was detected with Annexin V, 7AAD kit (BD Bioscience), and analyzed by flow cytometry, BD FACSCalibur (BD Bioscience).
structure (smiles),measurement,setting,value
"CN[C@@H]1C[C@H]2O[C@@](C)([C@@H]1OC)n1c3ccccc3c3c4c(c5c6ccccc6n2c5c31)C(=O)NC4 [staurosporine, Staurosporine]",cells in which apoptosis is induced,"SNU-1 cells that do not express CA1, within 3 hours",19.3%
same,cells in which apoptosis was induced,SNU-1 cells with forcedly expressed 3'-FLAG-tagged CA1,6.1%
